{
  "source": "patent US4578489A",
  "about": "(priority 1982, dated 1986)",
  "key": {"Proteus vulgaris": {"test_system": "Proteus vulgaris", "assay": "Minimum inhibitory concentration against bacteria, strain A", "format": "cell-based", "details": "24 hours at 30° C.; tested at 100 and 300 mg/liter", "description": "(§1) Overnight cultures, grown in Caso peptone bouillon (Merck) of the various strains of bacteria: (A) Proteus vulgaris, (B) Pseudomonas aeruginosa, (C) Enterobacter aerogenes, (D) Serratia marcencens, (E) Alcaligenes denitrificans and (F) Bacillus subtilis are each diluted in a ratio of 1/1000 in saline solution. Sufficient of the suspensions is put into Caso peptone bouillon to dilute the bacteria again in the ratio of 1/1000. Each of the compounds listed in Table 1 is then added in amounts of 100 and 300 mg/liter. After being incubated for 24 hours at 30° C. in a shaking waterbath, the turbidity of the samples is evaluated."}, "Pseudomonas aeruginosa": {"test_system": "Pseudomonas aeruginosa", "assay": "Minimum inhibitory concentration against bacteria, strain B", "format": "cell-based", "details": "24 hours at 30° C.; tested at 100 and 300 mg/liter", "description": "as §1"}, "Enterobacter aerogenes": {"test_system": "Enterobacter aerogenes", "assay": "Minimum inhibitory concentration against bacteria, strain C", "format": "cell-based", "details": "24 hours at 30° C.; tested at 100 and 300 mg/liter", "description": "as §1"}, "Serratia marcencens": {"test_system": "Serratia marcencens", "assay": "Minimum inhibitory concentration against bacteria, strain D", "format": "cell-based", "details": "24 hours at 30° C.; tested at 100 and 300 mg/liter", "description": "as §1"}, "[1]": {"test_system": "Alcaligenes denitrificans", "assay": "Minimum inhibitory concentration against bacteria, strain E", "format": "cell-based", "details": "24 hours at 30° C.; tested at 100 and 300 mg/liter", "description": "as §1"}, "Bacillus subtilis": {"test_system": "Bacillus subtilis", "assay": "Minimum inhibitory concentration against bacteria, strain F", "format": "cell-based", "details": "24 hours at 30° C.; tested at 100 and 300 mg/liter", "description": "as §1"}, "[2]": {"test_system": "mixed culture of bacteria", "format": "cell-based", "parameters": "key: +: growth, no destruction; (+): growth less than that of control (>10 colonies), slight destruction; (-): slight growth (1-10 colonies); -: no growth, destruction"}, "Aspergillus niger": {"test_system": "Aspergillus niger", "assay": "Minimum inhibitory concentration against fungi, agar incorporation test, strain K", "format": "cell-based", "details": "malt extract/agar", "description": "(§2) The invention is carried out using the known agar incorporation test in the following fungi:\n(§3) in a malt extract/agar (Merck). Inhibition is effected by adding sufficient of each of the various compounds to give final concentrations in the agar of 2, 5, 10, 50 and 100 mg/liter. The concentrations (mg/liters) required to inhibit the growth of the fungi (starting from traces of fungi added dropwise) are illustrated in Table 3."}, "Aspergillus phoenicis": {"test_system": "Aspergillus phoenicis", "assay": "Minimum inhibitory concentration against fungi, agar incorporation test, strain L", "format": "cell-based", "details": "malt extract/agar", "description": "as §2\n(L) Aspergillus phoenicis\nas §3"}, "Penicillium funiculosum": {"test_system": "Penicillium funiculosum", "assay": "Minimum inhibitory concentration against fungi, agar incorporation test, strain M", "format": "cell-based", "details": "malt extract/agar", "description": "as §2\n(M) Penicillium funiculosum\nas §3"}, "Alternaria alternata": {"test_system": "Alternaria alternata", "assay": "Minimum inhibitory concentration against fungi, agar incorporation test, strain N", "format": "cell-based", "details": "malt extract/agar", "description": "as §2, §3"}, "[3]": {"test_system": "Cladosporium cladosporioides", "assay": "Minimum inhibitory concentration against fungi, agar incorporation test, strain O", "format": "cell-based", "details": "malt extract/agar", "description": "as §2\n(O) Cladosporium cladosporioides\nas §3"}, "Candida albicans": {"test_system": "Candida albicans", "assay": "Minimum inhibitory concentration against fungi, agar incorporation test, strain P", "format": "cell-based", "details": "malt extract/agar", "description": "as §2, §3"}, "Endomyces geotrichum": {"test_system": "Endomyces geotrichum", "assay": "Minimum inhibitory concentration against fungi, agar incorporation test, strain Q", "format": "cell-based", "details": "malt extract/agar", "description": "as §2, §3"}, "Aureobasidium pullulans": {"test_system": "Aureobasidium pullulans", "assay": "Minimum inhibitory concentration against fungi, agar incorporation test, strain R", "format": "cell-based", "details": "malt extract/agar", "description": "as §2\n(R) Aureobasidium pullulans\nas §3"}, "Chaetomium globosum": {"test_system": "Chaetomium globosum", "assay": "Minimum inhibitory concentration against fungi, agar incorporation test, strain S", "format": "cell-based", "details": "malt extract/agar", "description": "as §2, §3"}, "Chlorella vulgaris": {"test_system": "Chlorella vulgaris", "assay": "Action against algae: Chlorella vulgaris", "format": "cell-based", "parameters": "key: --: no growth on the agar, 3 ppm have destroyed the algae in 6 hours", "details": "3 mg/liter", "description": "Cultures of Chlorella vulgaris which had been grown for 14 days in algae nutrient media are diluted in the ratio 1/200 in the algae nutrient medium. Each of the compounds listed in Table 1 is then added in such an amount as to give a final concentration of 3 mg/liter. After incubating for 6 hours, 10 μl of each culture are withdrawn and added dropwise to algae/agar in order to determine the destructive action. After the cultures have incubated for 14 days under illumination (14 hours of light and 10 hours of darkness, alternately), the growth in the algae medium (determination of growth inhibition) and on the algae/agar (determination of algae-destroying action) is assessed visually."}, "[4]": {"test_system": "Enteromorpha intestinalis", "assay": "Action against Enteromorpha intestinalis: destruction (minimum killing concentration)", "format": "in vivo", "details": "4 hours in seawater, then 6-8 weeks in fresh seawater", "description": "(§4) The action against the green alga Enteromorpha, which is the most important in seawter fouling, is investigated in sterile-filtered seawater containing an Erd-Schreiber solution. This solution is composed of a nutrient extract, phosphate and nitrate. The incubation of Enteromorpha intestinalis is carried out in a light thermostat at 18° C. under an alternation of 14 hours of light and 10 hours of darkness.\nThe algae which have been cultured in this way are exposed to the products under investigation for a short time (4 hours) in seawater. The minimum killing concentration (MKC) is determined by taking the algae out of the seawater containing a specific quantity of algicide, after the treatment time in the latter, washing the algae and investigating growth or mortality after incubation in fresh seawater for a further period of 6-8 weeks.\nThe minimum killing concentration (MKC) indicates the amount of substance required to cause such damage to the algae within a specific time that they can no longer recover in fresh seawater and die out."}, "[5]": {"test_system": "Enteromorpha intestinalis", "assay": "Action against Enteromorpha intestinalis: inhibitory concentration (MIC)", "format": "in vivo", "details": "seawater containing biocide for entire test; concentration tested 0.5 mg/liter", "description": "as §4\nFor determining the inhibitory concentration (MIC), the algae are kept in seawater containing biocide for the entire duration of the test (concentration tested: 0.5 mg/liter)."}, "Artemia salina": {"test_system": "Artemia salina", "assay": "Action against Artemia salina nauplii", "format": "in vivo", "parameters": "key: 0: no change; 1: slight change; 1-2: animals are attacked; 2: animals are strongly attacked; 2-3: animals are nearly all dead; 3: animals are all dead", "description": "The eggs, which are available commercially, are caused to hatch by vigorous aeration. When 2-3 days old, the nauplii are exposed to the products at various concentrations (concentrations tested: 2.5; 1; 0.5 and 0.25 mg/liter) in synthetic seawater, and are observed over a prolonged period of time."}},
  "note": "Read-outs that look alike come from different tables or passages of the source.",
  "data": [
    {"smiles": "CCCCCCCCCC[N+](C)(C)CCCCCCCCCC.CCC[CH2][Sn-]([Cl])([Cl])([CH2]CCC)[CH2]CCC", "note": "[Example 4, dimethyl-didecylammonium tributyldichlorostannate-(IV)]", "values": [
      {"measurement": "MIC against bacteria, strain A", "setting": "Proteus vulgaris", "value": 100, "unit": "mg/L"},
      {"measurement": "MIC against bacteria, strain B", "setting": "Pseudomonas aeruginosa", "value": 100, "unit": "mg/L"},
      {"measurement": "MIC against bacteria, strain C", "setting": "Enterobacter aerogenes", "value": 100, "unit": "mg/L"},
      {"measurement": "MIC against bacteria, strain D", "setting": "Serratia marcencens", "value": 100, "unit": "mg/L"},
      {"measurement": "MIC against bacteria, strain E", "setting": "[1]", "value": 100, "unit": "mg/L"},
      {"measurement": "MIC against bacteria, strain F", "setting": "Bacillus subtilis", "value": 100, "unit": "mg/L"},
      {"measurement": "Growth (destruction of a mixed culture of bacteria)", "setting": "[2]; 5 mg/l, culture diluted 1/1000 in Tyrode", "value": "+"},
      {"measurement": "Growth (destruction of a mixed culture of bacteria)", "setting": "[2]; 5 mg/l, culture diluted 1/10000 in Tyrode", "value": "+"},
      {"measurement": "Growth (destruction of a mixed culture of bacteria)", "setting": "[2]; 10 mg/l, culture diluted 1/1000 in Tyrode", "value": "+"},
      {"measurement": "Growth (destruction of a mixed culture of bacteria)", "setting": "[2]; 10 mg/l, culture diluted 1/10000 in Tyrode", "value": "(+) (growth less than that of control (>10 colonies), slight destruction)"},
      {"measurement": "Growth (destruction of a mixed culture of bacteria)", "setting": "[2]; 30 mg/l, culture diluted 1/1000 in Tyrode", "value": "+"},
      {"measurement": "Growth (destruction of a mixed culture of bacteria)", "setting": "[2]; 30 mg/l, culture diluted 1/10000 in Tyrode", "value": "-"},
      {"measurement": "Growth (destruction of a mixed culture of bacteria)", "setting": "[2]; 60 mg/l, culture diluted 1/1000 in Tyrode", "value": "(+) (growth less than that of control (>10 colonies), slight destruction)"},
      {"measurement": "Growth (destruction of a mixed culture of bacteria)", "setting": "[2]; 60 mg/l, culture diluted 1/10000 in Tyrode", "value": "-"},
      {"measurement": "Growth (destruction of a mixed culture of bacteria)", "setting": "[2]; 100 mg/l, culture diluted 1/1000 in Tyrode", "value": "(+) (growth less than that of control (>10 colonies), slight destruction)"},
      {"measurement": "Growth (destruction of a mixed culture of bacteria)", "setting": "[2]; 100 mg/l, culture diluted 1/10000 in Tyrode", "value": "-"},
      {"measurement": "MIC against fungi, strain K", "setting": "Aspergillus niger", "value": 2, "unit": "mg/L"},
      {"measurement": "MIC against fungi, strain L", "setting": "Aspergillus phoenicis", "value": 5, "unit": "mg/L"},
      {"measurement": "MIC against fungi, strain M", "setting": "Penicillium funiculosum", "value": 5, "unit": "mg/L"},
      {"measurement": "MIC against fungi, strain N", "setting": "Alternaria alternata", "value": 2, "unit": "mg/L"},
      {"measurement": "MIC against fungi, strain O", "setting": "[3]", "value": 5, "unit": "mg/L"},
      {"measurement": "MIC against fungi, strain P", "setting": "Candida albicans", "value": 5, "unit": "mg/L"},
      {"measurement": "MIC against fungi, strain Q", "setting": "Endomyces geotrichum", "value": 5, "unit": "mg/L"},
      {"measurement": "MIC against fungi, strain R", "setting": "Aureobasidium pullulans", "value": 2, "unit": "mg/L"},
      {"measurement": "MIC against fungi, strain S", "setting": "Chaetomium globosum", "value": 2, "unit": "mg/L"},
      {"measurement": "Growth on the agar (algae-destroying action)", "setting": "Chlorella vulgaris; 6 hours exposure, 14 days incubation", "value": "--"},
      {"measurement": "Growth in the medium (growth inhibition)", "setting": "Chlorella vulgaris; 14 days", "value": "--"},
      {"measurement": "Destruction, 5 mg/liter", "setting": "[4]", "value": "yes"},
      {"measurement": "MIC", "setting": "[5]", "value": 0.5, "unit": "mg/L"},
      {"measurement": "Action against Artemia salina", "setting": "Artemia salina; 0,5 mg/l, 6 hours", "value": "1-3"},
      {"measurement": "Action against Artemia salina", "setting": "Artemia salina; 0,5 mg/l, 24 hours", "value": "2-3"},
      {"measurement": "Action against Artemia salina", "setting": "Artemia salina; 0,5 mg/l, 48 hours", "value": 3},
      {"measurement": "Action against Artemia salina", "setting": "Artemia salina; 0,25 mg/l, 6 hours", "value": "0-1"},
      {"measurement": "Action against Artemia salina", "setting": "Artemia salina; 0,25 mg/l, 24 hours", "value": 2},
      {"measurement": "Action against Artemia salina", "setting": "Artemia salina; 0,25 mg/l, 48 hours", "value": 2},
      {"measurement": "Action against Artemia salina", "setting": "Artemia salina; 1 mg/l, 6 hours", "value": "2-3"},
      {"measurement": "Action against Artemia salina", "setting": "Artemia salina; 1 mg/l, 24 hours", "value": 3},
      {"measurement": "Action against Artemia salina", "setting": "Artemia salina; 1 mg/l, 48 hours", "value": 3},
      {"measurement": "Action against Artemia salina", "setting": "Artemia salina; 2,5 mg/l, 6 hours", "value": "2-3"},
      {"measurement": "Action against Artemia salina", "setting": "Artemia salina; 2,5 mg/l, 24 hours", "value": 3},
      {"measurement": "Action against Artemia salina", "setting": "Artemia salina; 2,5 mg/l, 48 hours", "value": 3}
    ]}
  ]
}
